Like-named read-outs stand apart in the source and are kept apart here.
What was measured:
[1] = system: human ovarian cancer cell line ES-2; assay: Flow cytometry apoptosis assay of tumor after treatment; type: in vivo, SCID mice; details: systematic delivery
Source text: A single intraperitoneal injection of human ovarian cancer cell line ES-2 (2×10^5 cells per mouse, ATCC no. CRL-1978) at d0 into 5-week-old SCID mice (CB.17 scid/scid) was commenced to generate tumor, which was confirmed via abdominal distension and malignant ascites in 3 weeks. […] Animals were used in compliance with institutional animal health care regulations, and all animal experimental procedures were approved by the Institutional Animal Care and Use Committee. Tumor-bearing mice were euthanized at the endpoint when there were signs of distress, including fur ruffling, rapid respiratory rate, hunched posture, reduced activity, and progressive ascites formation. Groups of mice were treated. A 2-factor factorial design was implemented with factor 1 (systematic delivery versus regional delivery) and factor 2 (free drug versus nanomedicine). […] The dosing schedule for each paired drugs (free drug and nanomedicine) was given on maximal tolerated dose based on preliminary study.

[2] = system: human ovarian cancer cell line ES-2; type: in vivo; details: regional delivery
Source text: (§1) Experiments were repeated in triplicate.
as §1, §1, §1, §1

lung metastases = assay: Lung metastases model (tail vein injection of tumor cells); type: in vivo, SCID mice
Protocol: (7B) Control of lung metastases. Mouse was induced lung metastases by tail vein injection of tumor cells at d1.
Animals were used in compliance with institutional animal health care regulations, and all animal experimental procedures were approved by the Institutional Animal Care and Use Committee. […] Groups of mice were treated. A 2-factor factorial design was implemented with factor 1 (systematic delivery versus regional delivery) and factor 2 (free drug versus nanomedicine). […] The dosing schedule for each paired drugs (free drug and nanomedicine) was given on maximal tolerated dose based on preliminary study. Lung metastases were induced by tail-vein injection, while liver metastases were by splenic injection, and retroperitoneal lymphatic metastases were induced by intra-uterine injection of tumor cells.

[3] = system: cancer stem cells of ES-2 tumors; assay: Cancer stem cell analysis of treated tumors (tumor sphere, side population, RT-PCR); type: in vivo, SCID mice
Protocol: (8A) Tumor sphere-forming ability of treated tumor. Mouse was implanted with ES-2 cells (2×10^6/mouse) at day 1 and was treated at day 5, day 8, and day 11 at indicated dosage. Tumors were retrieved at day 14 for each indicated group. Tumors were dissociated into single cell suspension and cultured in an ultralow dish for 10 days. […] Representative figures are shown. (8B) Summary of tumor sphere formation (mean±SD). (8C) Flow cytometry analysis of Hoechst 33342-stained cells and identification of side population cells. Percentage of side population cells are shown. (D-G) RT-PCR analysis for the expressions of stemness marker (8D), genes for epithelial-mesenchymal transition (EMT) driver and expression of epithelial or mesenchymal phenotype (8E), genes for tumor angiogenesis (8F), and genes for multidrug resistance (8G). (8H) CXCR4/CXCL12 axis in stem cells maintenance. […] Experiments were repeated in triplicate.

CT-26-luc cells = assay: Antitumor activity in colon cancer syngeneic mice model (CT-26-luc i.p., BLI and survival); type: in vivo, BALB/c mice
Protocol: Tumor cell growth was determined by measuring bioluminescence images (BLI) using IVIS system. Treatments were initiated when the tumor dissemination (judged by luminescence activity) reached baseline. […] Survival of these animals was recorded.
Five-week-old female BALB/c mice were purchased from the National Laboratory Animal Breeding and Research Center of Taipei and maintained in the oncology animal facility of Taipei Veterans General Hospital, Taipei, Taiwan. The animals were used in compliance with the institutional animal health care regulations, and all of the animal experimental procedures were approved by the Institutional Animal Care and Use Committee.
Exact dosing volume was calculated using body weight. Control group was given 100 ul of 0.9% Sodium Chloride Injection.
BALB/c mice (6 weeks) were injected with 1×10^5 CT-26-luc cells in 250 ul opti-MEM by i.p. on Day 0 (D0). After 4 days (D4), tumor cell growth was determined by measuring luminescence activity using IVIS system (baseline). Each group Bioluminescence images (BLI) was normalized by average BLI of total mice before treatment. […] Animals were monitored individually till death for survival evaluation.
The mice were imaged with the IVIS-50 system (Xenogen, Alameda, Calif.).
Overall survival was defined as the time from the date of tumor implantation to the date of death and is presented as the Kaplan-Meier survival curve.

recurrent ovarian tumor = details: HIPEC, 10 mg/kg
Protocol: Depicted are inflow and outflow ports and anal temperature probe to monitor internal temperature of mouse during perfusion. Mice were perfused for 1 h at the rate of 3 mL/min with Taxol® (10 mg/kg). […] Experiments were repeated in triplicate.

[4] = system: metastatic non-small lung cancer; details: P=0.271; cited from earlier work
[5] = human, in vivo, ip; cited from earlier work
[6] = hepatic artery infusion; cited from earlier work

CC(=O)O[C@H]1C(=O)[C@@]2(C)[C@H]([C@H](OC(=O)c3ccccc3)[C@]3(O)C[C@H](OC(=O)[C@H](O)[C@@H](NC(=O)c4ccccc4)c4ccccc4)C(C)=C1C3(C)C)[C@]1(OC(C)=O)CO[C@@H]1C[C@@H]2O [Taxol®, paclitaxel]
apoptosis of tumor [1]: 23.3%
therapeutic efficacy (bioluminescence imaging day 14 vs day 4) ([2]; 10 mg/kg/mouse, day 5, 8, 11 (FIG. 2B)): some efficacy
therapeutic efficacy (bioluminescence imaging day 14 vs day 4) ([2]; 10 mg/kg/mouse, day 5, 8, 11 (FIG. 6)): some efficacy
control of lung metastases (lung metastases; regional (intrapleural) delivery): some therapeutic efficacy
control of lung metastases (lung metastases; systematic delivery): unsatisfactory control of tumor
CXCR4/CXCL12 expression compared to control group ([3]; i.v. delivery): increased expression of CXCR4/CXCL12
side population cells (Hoechst 33342) ([3]; regional delivery): increased
tumor sphere (microsphere) formation of treated tumor ([3]; systematic (i.v.) delivery, tumors retrieved day 14, cultured 10 days): increased microsphere formation
side population cells (Hoechst 33342) ([3]; systematic delivery): increased
inhibition of colon tumor growth / antitumor activity (CT-26-luc cells; 10 mg/kg i.p.): did not inhibit colon tumor growth
median survival day (CT-26-luc cells; 10 mg/kg i.p.): 26 days
survival duration (CT-26-luc cells; 10 mg/kg i.p.): 27 days
inhibition of colon tumor growth (CT-26-luc cells; 10 mg/kg i.v.): did not inhibit colon tumor growth
median survival day (CT-26-luc cells; 10 mg/kg i.v.): 24 days
survival duration (CT-26-luc cells; 10 mg/kg i.v.): 27 days
complications (bowel obstruction or perforation) (recurrent ovarian tumor): higher
tumor control of recurrent tumor (recurrent ovarian tumor; perfused 1 h at 3 mL/min): good tumor control
median overall survival [4]: 11.2 months

N.N.[Cl][Pt][Cl] [cisplatin]
therapeutic efficacy (bioluminescence imaging day 14 vs day 4) ([2]; 5 mg/kg/mouse, day 5 and 10 (FIG. 3B)): some therapeutic effect
increased exposure to the peritoneal cavity as compared to the systemic compartment [5]: 20 fold

COc1cccc2c1C(=O)c1c(O)c3c(c(O)c1C2=O)C[C@@](O)(C(=O)CO)C[C@@H]3O[C@H]1C[C@H](N)[C@H](O)[C@H](C)O1 [doxorubicin]
therapeutic efficacy (bioluminescence imaging day 14 vs day 4) ([2]; 5 mg/kg/mouse, day 5 and 10 (FIG. 5)): some therapeutic effect

O=c1[nH]c(=O)n([C@H]2C[C@H](O)[C@@H](CO)O2)cc1F [floxuridine]
higher tumor drug levels as compared to portal vein infusion [6]: 15 fold

CC[C@@]1(O)C(=O)OCc2c1cc1n(c2=O)Cc2cc3c(CN(C)C)c(O)ccc3nc2-1 [topotecan]
therapeutic efficacy (bioluminescence imaging day 14 vs day 4) ([2]; 10 mg/kg/mouse, day 5 and 10 (FIG. 4B)): some therapeutic effect
